Where a SMILES comes first, the peptide text is derived from it. [ ]: non-standard residue; d: D form. Dolaproine = CO[C@@H]([C@@H]1CCCN1)[C@@H](C)C(=O)O; Dil = CC[C@H](C)[C@H](NC)[C@@H](CC(=O)O)OC; NMeV = CN[C@H](C(=O)O)C(C)C
Assays:
Assay type in all cases: cell-based, human
MM1.S cells = assay: CellTiter-Glo cell viability, MM1.S; settings: MM1S cells, 6 days; for LD50 / GI50: CellTiter-Glo; for GI50: read-out: GI50; for RminAve: negative = cell death vs T0
MM1.R cells = assay: CellTiter-Glo cell viability, MM1.R; settings: MM1R cells, 6 days; for LD50 / GI50: CellTiter-Glo; for GI50: read-out: GI50; for RminAve: negative = cell death vs T0
OPM2 cells = assay: CellTiter-Glo cell viability, OPM2 (normal serum); settings: OPM2 cells, 6 days; for LD50 / GI50: CellTiter-Glo; for GI50: read-out: GI50; for RminAve: negative = cell death vs T0
NCI-H929 cells = assay: CellTiter-Glo cell viability, NCI-H929 (normal serum); settings: NCIH929 cells, 6 days; for LD50 / GI50: CellTiter-Glo; for GI50: read-out: GI50; for RminAve: negative = cell death vs T0
MOLP8 cells = assay: CellTiter-Glo cell viability, MOLP8; settings: MOLP8 cells, 6 days; for LD50 / GI50: CellTiter-Glo; for GI50: read-out: GI50; for RminAve: negative = cell death vs T0
LP-1 cells = assay: 6-day CellTiter-Glo cell viability, LP-1; settings: LP1 cells, 6 days; for LD50 / GI50: CellTiter-Glo; for GI50: read-out: GI50; for RminAve: negative = cell death vs T0
AMO-1 cells = assay: 6-day CellTiter-Glo cell viability, AMO-1; settings: AMO1 cells, 6 days; for LD50 / GI50: CellTiter-Glo; for GI50: read-out: GI50; for RminAve: negative = cell death vs T0
EJM cells = assay: 6-day CellTiter-Glo cell viability, EJM; settings: EJM cells, 6 days; for LD50 / GI50: CellTiter-Glo; for GI50: read-out: GI50; for RminAve: negative = cell death vs T0
RPMI-8226 cells = assay: 6-day CellTiter-Glo cell viability, RPMI-8226; settings: RPMI8226 cells, 6 days; for LD50 / GI50: CellTiter-Glo; for GI50: read-out: GI50; for RminAve: negative = cell death vs T0
U266B1 cells = assay: 6-day CellTiter-Glo cell viability, U266B1; settings: U266B1 cells, 6 days; for LD50 / GI50: CellTiter-Glo; for GI50: read-out: GI50; for RminAve: negative = cell death vs T0
KMS-11 cells = assay: 6-day CellTiter-Glo cell viability, KMS-11; settings: KMS11 cells, 6 days; for LD50 / GI50: CellTiter-Glo; for GI50: read-out: GI50; for RminAve: negative = cell death vs T0

## CC[C@H](O)[C@@H](C)[C@H]1O[C@@H]1C[C@@](C)(O)/C=C/C=C(\C)[C@H]1OC(=O)C[C@H](O)CC[C@@](C)(O)[C@@H](OC(=O)N2CCN(C3CCCCCC3)CC2)/C=C/[C@@H]1C [E7107 (D11)]
MM1.S cells
  AUC (nM * % relative viability): 380.5913 nM * % relative viability
  LD50: 18.155 nM
  GI50: 0.00351 µM
  RminAve: −99.7761%
MM1.R cells
  AUC (nM * % relative viability): 374.4113 nM * % relative viability
  LD50: 16.5876 nM
  GI50: 0.00333 µM
  RminAve: −99.831%
OPM2 cells
  AUC (nM * % relative viability): 289.9829 nM * % relative viability
  LD50: 4.7541 nM
  GI50: 0.00167 µM
  RminAve: −99.6884%
NCI-H929 cells
  AUC (nM * % relative viability): 321.415 nM * % relative viability
  LD50: 5.836 nM
  GI50: 0.00281 µM
  RminAve: −99.8426%
MOLP8 cells
  AUC (nM * % relative viability): 361.7797 nM * % relative viability
  LD50: 16.8329 nM
  GI50: 0.00243 µM
  RminAve: −99.6765%
LP-1 cells
  AUC (nM * % relative viability): 313.7701 nM * % relative viability
  LD50: 6.2485 nM
  GI50: 0.0022 µM
  RminAve: −99.6676%
AMO-1 cells
  AUC (nM * % relative viability): 487.7156 nM * % relative viability
  LD50: 50.4287 nM
  GI50: 0.0149 µM
  RminAve: −96.8372%
EJM cells
  AUC (nM * % relative viability): 434.2294 nM * % relative viability
  LD50: 22.175 nM
  GI50: 0.00945 µM
  RminAve: −99.071%
RPMI-8226 cells
  AUC (nM * % relative viability): 359.1272 nM * % relative viability
  LD50: 10.8782 nM
  GI50: 0.00359 µM
  RminAve: −99.7762%
U266B1 cells
  AUC (nM * % relative viability): 422.0108 nM * % relative viability
  LD50: 18.2733 nM
  GI50: 0.00876 µM
  RminAve: −95.1886%
KMS-11 cells
  AUC (nM * % relative viability): 382.1527 nM * % relative viability
  LD50: 13.1801 nM
  GI50: 0.00503 µM
  RminAve: −99.2702%

## CC[C@H](C)[C@@H]([C@@H](CC(=O)N1CCC[C@H]1[C@H](OC)[C@@H](C)C(=O)N[C@@H](Cc1ccccc1)C(=O)O)OC)N(C)C(=O)[C@@H](NC(=O)[C@@H](NC)C(C)C)C(C)C [MMAF] (H-[NMeV]V[Dil][Dolaproine]F-OH)
MM1.S cells
  AUC (nM * % relative viability): 726.0671 nM * % relative viability
  LD50: 615.7256 nM
  GI50: 0.296 µM
  RminAve: −99.8301%
MM1.R cells
  AUC (nM * % relative viability): 721.5643 nM * % relative viability
  LD50: 584.6173 nM
  GI50: 0.281 µM
  RminAve: −99.7818%
OPM2 cells
  AUC (nM * % relative viability): 740.134 nM * % relative viability
  LD50: 723.9832 nM
  GI50: 0.348 µM
  RminAve: −99.7203%
NCI-H929 cells
  AUC (nM * % relative viability): 734.8893 nM * % relative viability
  LD50: 676.4428 nM
  GI50: 0.321 µM
  RminAve: −99.782%
MOLP8 cells
  AUC (nM * % relative viability): 788.7538 nM * % relative viability
  LD50: 4689.579 nM
  GI50: 0.254 µM
  RminAve: −58.9492%
LP-1 cells
  AUC (nM * % relative viability): 724.5606 nM * % relative viability
  LD50: 761.0403 nM
  GI50: 0.223 µM
  RminAve: −97.9742%
AMO-1 cells
  AUC (nM * % relative viability): 640.894 nM * % relative viability
  LD50: 243.7059 nM
  GI50: 0.101 µM
  RminAve: −99.5356%
EJM cells
  AUC (nM * % relative viability): 600.0131 nM * % relative viability
  LD50: 194.3761 nM
  GI50: 0.0515 µM
  RminAve: −98.8551%
RPMI-8226 cells
  AUC (nM * % relative viability): 714.2788 nM * % relative viability
  LD50: 557.1533 nM
  GI50: 0.224 µM
  RminAve: −95.3537%
U266B1 cells
  AUC (nM * % relative viability): 661.824 nM * % relative viability
  LD50: 192.3371 nM
  GI50: 0.0678 µM
  RminAve: −89.2656%
KMS-11 cells
  AUC (nM * % relative viability): 706.6578 nM * % relative viability
  LD50: 490.3828 nM
  GI50: 0.235 µM
  RminAve: −98.8009%

## N.N.[Cl][Pt][Cl] [cisplatin]
MM1.S cells
  GI50: 10.2 µM
  RminAve: −99.8687%
MM1.R cells
  GI50: 7.3 µM
  RminAve: −99.9355%
OPM2 cells
  GI50: 17 µM
  RminAve: −99.784%
NCI-H929 cells
  GI50: 21.4 µM
  RminAve: −99.945%
MOLP8 cells
  GI50: 5.07 µM
  RminAve: −99.8824%
LP-1 cells
  GI50: 50.1 µM
  RminAve: −97.8184%
AMO-1 cells
  GI50: 8.59 µM
  RminAve: −99.8648%
EJM cells
  GI50: 30.1 µM
  RminAve: −99.8757%
RPMI-8226 cells
  GI50: 16.3 µM
  RminAve: −99.2206%
U266B1 cells
  GI50: 39.9 µM
  RminAve: −99.4122%
KMS-11 cells
  GI50: 14.4 µM
  RminAve: −99.8489%

Reference: patent US12043670B2, “Anti-BCMA antibody-drug conjugates and methods of use” (Eisai R&D Management Co., Ltd., priority 2020, dated 2024)
